Measured values from US20080031866A1, “METHOD FOR MODULATING THE PHARMACOKINETICS AND METABOLISM OF A THERAPEUTIC AGENT” (priority 2006, published 2008).

Key:
[1] = Intraduodenal dosing with and without β-glucuronidase, catheterized rat; type: in vivo; conditions: male, Sprague Dawley, rat, plasma, 10 mg/kg, rats N=6; for AUC: read-out: AUC average ± standard deviation 0 to 6 hours; for Cmax: read-out: Cmax average ± standard deviation; for concentration at 0 h / concentration at 0.25 h / concentration at 0.5 h / concentration at 1 h / concentration at 2 h / concentration at 3 h / concentration at 4 h / concentration at 5 h / concentration at 6 h: other: intraduodenal
Procedure: A catheterized rat model was used in which the agent alone or agent and β-glucuronidase enzyme was administered intraduodenally or intracolonically. The intraduodenal and intracolonic dosing was intended to prevent the potential for loss of enzymatic activity when orally dosing the β-glucuronidase (e.g. by degradation in the stomach). […]
(§1) For the oral gavage dosing, Compound 1 was prepared in neat PEG-400. For the intraduodenal and intracolonic dosing solutions, Compound 1 was added to neat Tween 80, the mixture was sonicated for thirty minutes at 45° C. until Compound 1 was completely dissolved and then deionized (DI) water was added to form a solution consisting of 20% Tween 80 and 80% DI water by weight.
For the oral enzyme solutions, β-glucuronidase was added to the final formulation at a concentration of 57,600 units/ml.
For the intraduodenal and intracolonic dosing, male Sprague Dawley rats weighing 300-400 g were purchased from Charles River Labs. All rat experiments were conducted under approved animal protocols. The rats were catheterized at Charles River Labs and had one or more of the following chronic catheters for dosing and sampling: jugular/carotid, duodenal, and colonic. Rats were limited to only one GI catheter and one vascular catheter. For IV dosing, rats were purchased with jugular and carotid catheters for dosing in the jugular catheter and blood sampling through the carotid catheter. For intraduodenal/intracolonic dosing, rats had one of the GI catheters for dosing and a carotid catheter for blood sampling.
The surgeries were done two weeks prior to start of testing. Rats were fed 4 hours post dose administration. All rats were dosed without anesthesia and sacrificed at the end of the study.
(§2) A quantitative method for determining the amount of (6,7-dimethoxy-2,4-dihydro-indeno[1,2-c]pyrazol-3-yl)-(3-fluoro-phenyl)-amine Compound 1 and its major metabolites, glucuronide A (Cpd 1-GluA) and glucuronide B (Cpd 1-GluB) (see Scheme A) in rat plasma was developed using phenacetin as an internal standard. [drawing 1]
(§3) The two glucuronide conjugates were prepared and purified to permit accurate quantification of the levels of intact parent Compound 1 versus Cpd 1-GluA and Cpd 1-GluB. Each standard curve for Compound 1, Cpd 1-GluA, and Cpd 1-GluB generated from rat plasma included ten concentration levels. […] The quantitative procedure for each sample included: sample preparation, HPLC separation and mass spectrometry detection.
(§4) The rat plasma was prepared using protein precipitation techniques. Reference standards and quality control samples in rat plasma for Compound 1 were transferred to a 96 deep-well plate. The precipitation solution contained 100 ng/ml of internal standard in acetonitrile. 300 μl of precipitation solution were added to 100 μl of each standard, quality control and plasma sample. Samples were vortexed for 10 mins, then centrifuged at 4500 RPM for 10 mins. 10 μl of each sample were injected for LC/MS/MS analysis.
(§5) The HPLC column chosen for the bioanalysis was purchased from Thermo Electron (Hypersil BetaBasic C18, 5 cm×2.1 mm). The eluting solvents were composed of Solvent A: 0.1% formic acid in H2O and Solvent B: 0.1% formic acid in acetonitrile. A step gradient was used and flow rate was 300 μl/min. The total run time was 3.2 mins. Solvent B was increased from 35% at 0 min to 75% at 2.1 mins and decreased back to 35% at 2.2 mins. The retention times for Compound 1, phenacetin, Cpd 1-GluA and Cpd 1-GluB were 1.1 min, 0.9 min, 1.3 min, and 1.6 min, respectively.
(§6) API3000 with a Turbo Ionspray interface from Applied Biosystems was used for the detection of Compound 1, the internal standard and major metabolites. Electrospray ionization was performed in the positive ion mode heated nebulizer with a temperature of 300° C. LC/MS/MS chromatograms were acquired in MRM (multiple reaction mode). […]

[2] = Oral gavage pharmacokinetics, jugular and portal vein sampling, first pass metabolism; type: in vivo, rat; conditions: for AUC: po, 75 mg/kg; for AUC / concentration at 0 h / concentration at 0.08 h / concentration at 0.25 h / concentration at 0.33 h / concentration at 0.5 h / concentration at 0.67 h / concentration at 1 h / concentration at 1.25 h / concentration at 1.5 h / concentration at 2 h / concentration at 3 h / concentration at 4 h / concentration at 6 h / concentration at 12 h / concentration at 24 h / Cmax: rats N=4; for Cmax: read-out: Cmax average ± standard deviation
Procedure: Two separate IV studies were carried out using two separate lots of animals. IV-A was run on the same lot of animals as the oral gavage study and IV-B was run on the same lot of animals as the intraduodenal and intra-colonic studies.
as §1
For the IV and oral gavage dosing (sampling at jugular and portal vein), young adult male Sprague Dawley rats weighing 250-400 g were purchased from Hilltop Lab Animals Inc. All rat experiments were conducted under approved animal protocols. The rats for the oral gavage dosing were catheterized at Hilltop Lab Animals Inc, had two chronic catheters for sampling: jugular and portal, were housed in cages of Culex™ Automated Blood Sampler (ABS) and blood samples were collected simultaneously via both cannula and were controlled by the Culex™ ABS control software.
as §2, §3, §4, §5
as §6, with “mode). The MRM transitions for Compound 1, the internal standard, Cpd 1-GluA and Cpd 1-GluB were from 326.3 to 190.6, 181.1 to 110.3, 502.2 to 368.3 and 502.2 to 326.4, respectively.” for “mode).”

[3] = Compound 1 10 mg/kg intraduodenal with β-glucuronidase
[4] = Compound 1 10 mg/kg intraduodenal without enzyme
[5] = male, Sprague Dawley, rat, plasma (jugular vein sample), Compound 1 75 mg/kg oral gavage, jugular sample
[6] = male, Sprague Dawley, rat, plasma (portal vein sample), Compound 1 75 mg/kg oral gavage, portal sample
[7] = male, Sprague Dawley, rat, portal vein plasma, Compound 1 75 mg/kg oral gavage, portal sample

SMILES: COc1cc2c(cc1OC)-c1nn(C3OC(C(=O)O)C(O)C(O)C3O)c(Nc3cccc(F)c3)c1C2 (stereo in doubt) [Cpd 1-GluB]
- AUC [1, 3]: 1770 ng·h/mL
- Cmax [1, 3]: 755 ± 509 ng/mL
- AUC [1, 4]: 128 ± 55.3 ng·h/mL
- Cmax [1, 4]: 75.7 ± 27.4 ng/mL
- concentration at 0 h [1, 3]: 0 ng/mL
- concentration at 0.25 h [1, 3]: 508 ± 342 ng/mL
- concentration at 0.5 h [1, 3]: 503 ± 363 ng/mL
- concentration at 1 h [1, 3]: 676 ± 586 ng/mL
- concentration at 2 h [1, 3]: 275 ± 260 ng/mL
- concentration at 3 h [1, 3]: 271 ± 181 ng/mL
- concentration at 4 h [1, 3]: 194 ± 165 ng/mL
- concentration at 5 h [1, 3]: 146 ± 84.4 ng/mL
- concentration at 6 h [1, 3]: 119 ± 108 ng/mL
- concentration at 0 h [1, 4]: 0 ng/mL
- concentration at 0.25 h [1, 4]: 70.2 ± 29.3 ng/mL
- concentration at 0.5 h [1, 4]: 72.4 ± 28.2 ng/mL
- concentration at 1 h [1, 4]: 51.2 ± 24.9 ng/mL
- concentration at 2 h [1, 4]: 13.5 ± 5.5 ng/mL
- concentration at 3 h [1, 4]: 7.1 ± 5 ng/mL
- concentration at 4 h [1, 4]: 9.6 ± 6.7 ng/mL
- concentration at 5 h [1, 4]: 9.2 ± 4.1 ng/mL
- concentration at 6 h [1, 4]: 10.4 ± 4 ng/mL
- Ratio of metabolite to Compound 1 ([2]; jugular vein, oral gavage): 1
- AUC ([2]; male, Sprague Dawley, rat, plasma (jugular vein sample), Compound 1 75 mg/kg oral gavage, jugular sample, read-out: AUC average ± standard deviation 0 to 24 hours): 1710 ng·h/mL
- AUC ([2]; male, Sprague Dawley, rat, plasma (jugular vein sample), Compound 1 75 mg/kg oral gavage, jugular sample, read-out: AUC average ± standard deviation 0 to infinite hours): 2180 ng·h/mL
- concentration at 0 h [2, 5]: 0 ng/mL
- concentration at 0.08 h [2, 5]: 37.8 ng/mL
- concentration at 0.25 h [2, 5]: 169 ng/mL
- concentration at 0.33 h [2, 5]: 233 ng/mL
- concentration at 0.5 h [2, 5]: 223 ng/mL
- concentration at 0.67 h [2, 5]: 244 ng/mL
- concentration at 1 h [2, 5]: 230 ng/mL
- concentration at 1.25 h [2, 5]: 178 ng/mL
- concentration at 1.5 h [2, 5]: 169 ng/mL
- concentration at 2 h [2, 5]: 141 ng/mL
- concentration at 3 h [2, 5]: 90 ng/mL
- concentration at 4 h [2, 5]: 51.4 ng/mL
- concentration at 6 h [2, 5]: 71.3 ng/mL
- concentration at 12 h [2, 5]: 86.5 ng/mL
- concentration at 24 h [2, 5]: 29 ng/mL
- Cmax [2, 5]: 268 ± 52 ng/mL
- concentration at 0.67 h [2, 6]: 290 ng/mL
- concentration at 1 h [2, 6]: 164 ng/mL
- concentration at 1.25 h [2, 6]: 183 ng/mL
- concentration at 1.5 h [2, 6]: 151 ng/mL
- concentration at 2 h [2, 6]: 142 ng/mL
- concentration at 3 h [2, 6]: 105 ng/mL
- concentration at 4 h [2, 6]: 79.5 ng/mL
- concentration at 6 h [2, 6]: 120 ng/mL
- concentration at 12 h [2, 6]: 87.2 ng/mL
- Tmax ([2]; male, Sprague Dawley, rat, plasma, rats, Compound 1 75 mg/kg oral gavage): 30 min
- AUC ([2]; male, Sprague Dawley, rat, portal vein plasma, Compound 1 75 mg/kg oral gavage, portal sample, read-out: AUC average ± standard deviation 0 to 24 hours): 1960 ng·h/mL
- AUC ([2]; male, Sprague Dawley, rat, portal vein plasma, Compound 1 75 mg/kg oral gavage, portal sample, read-out: AUC average ± standard deviation 0 to infinite hours): 2490 ng·h/mL
- concentration at 0 h [2, 7]: 0 ng/mL
- concentration at 0.08 h [2, 7]: 82.8 ng/mL
- concentration at 0.25 h [2, 7]: 215 ng/mL
- concentration at 0.33 h [2, 7]: 263 ng/mL
- concentration at 0.5 h [2, 7]: 192 ng/mL
- concentration at 24 h [2, 7]: 39.9 ng/mL
- Cmax [2, 7]: 324 ± 129 ng/mL
- Mean ratio of metabolite to Compound 1 ([2]; portal system, oral gavage): 0.2
